# In patent US20050032160A1, “Cell-based therapies for diabetes mellitus and other glucose intolerant states” (priority 2003, published 2005):
# Entries after “also recorded” stand apart in the source; their conditions may differ.
# Tests used:
# β-cell = settings: non-metabolizable analogs of glucose; cited from earlier work
# rat INS-1 cells = settings: glucose-responsive clones; correlated with pyruvate cycling; cited from earlier work
# [1] = test system: glycerol kinase overexpressing 832/13 cells; assay: Pyruvate cycling (13C studies) in glycerol kinase overexpressing 832/13 cells; type: cell-based, rat; settings: glycerol versus glucose
# Text: (§1) FIG. 9 depicts the effect of glycerol kinase overexpression in 832/13 cells on insulin excretion, lactate output and pyruvate cycling.
# (§2) In contrast, pyruvate cycling and lactate output are higher in response to glycerol than to glucose.
# [2] = test system: glycerol kinase overexpressing 832/13 cells; assay: Insulin secretion in glycerol kinase overexpressing 832/13 cells; type: cell-based, rat; settings: glucose versus glycerol
# Text: as §1, §2
# [3] = test system: glycerol kinase overexpressing 832/13 cells; assay: Lactate output in glycerol kinase overexpressing 832/13 cells; type: cell-based, rat; settings: glycerol versus glucose
# Text: as §1, §2
# 832/13 cells = assay: Insulin secretion assay (radioimmunoassay) in 832/13 cells; type: cell-based, rat; settings: relative to glucose or pyruvate
# Protocol: The cell line 832/13 was created from INS-1 insulinoma β-cells as described earlier (Hohmeier et al. (2000) Diabetes 49:424-430). Cells were cultured in RPMI-1640 medium containing 11 mM glucose supplemented with 10% fetal bovine serum, 10 mM HEPES, 2 mM glutamine, 1 mM sodium pyruvate and […] β-mercaptoethanol. Media was routinely changed every second day. 832/13 cells were split to a cell density of 20-30% confluence in 12 well plates. At a cell density of 90%, cells were exposed to virus by adding crude extract directly to the growth media. After 16 hours of transduction, virus containing media was removed and the cells were cultured in fresh media in additional 24 hours before secretion assays. Insulin secretion was assayed in HEPES buffered saline solution (HBSS) (114 mM NaCl, 4.7 mM KCl,1.2 mM KH2PO4, 1.16 mM MgSO4, 20 mM HEPES, 2.5 mM CaCl2, 25.5 mM NaHCO3, pH 7.2 containing 0.2% bovine serum albumin (essentially fatty acid free). Cells were washed in 1 ml of HBSS, preincubated in 1.5 ml of HBSS for 2 hour prior to a 2 hour incubation in the presence of secretagogues as indicated in the figures. The insulin levels were determined by radioimmunoassay with the Coat-A-Count kit (ICN Pharmaceuticals, Costa Mesa, Calif.) and lactate output was determined with a Lactate Reagent kit (Sigma, St. Louis, Mo.) according to protocols outlined by the manufacturer.
compound,measurement,setting,value
O=CC[C@@H](O)[C@H](O)[C@H](O)CO [2-deoxy glucose],stimulation of insulin release,β-cell,fail to stimulate insulin release
O=C(O)Cc1ccccc1 [phenylacetic acid],effect on glucose-stimulated IS,rat INS-1 cells,impaired
OCC(O)CO [glycerol],pyruvate cycling,[1],higher
same,stimulation of insulin secretion,[2],to the same extent
same,lactate output,[3],higher
O=C(O)CC(O)C(=O)O (stereo not shown) [malate],effect on glucose-stimulated IS,rat INS-1 cells,potentiated
CO[C@@H]([C@H](O)[C@H](O)CO)[C@@H](O)C=O [3-O-methyl glucose],stimulation of insulin release,β-cell,fail to stimulate insulin release
CC(O)C(=O)O (stereo not shown) [lactate],stimulation of insulin secretion as secretagogue,832/13 cells; 832/13 cells overexpressing LDHA,as effective as the other two fuels; also recorded: as effective as glucose or pyruvate
same,stimulation of insulin secretion as secretagogue,832/13 cells; 832/13 cells without LDH overexpression,poor secretagogue; also recorded: only a weak stimulator of IS
same,stimulation of insulin secretion as secretagogue,"832/13 cells; 832/13 cells without LDH overexpression, listed as Lactate",poor secretagogue
